Experimental data: ChEMBL document CHEMBL5329158 (RSC Med Chem, 2023); call rule not given here

Assays:
[1] = Selectivity index, ratio of CC50 for cytotoxicity against mouse NCTC clone 929 cells assessed as inhibition of cell growth to IC50 for antileishmanial activity against Leishmania infantum MHOM/BR/1972/LD amastigotes infected in mouse Peritoneal macrophage cells assessed as inhibition of parasite growth; assay type: toxicity, cell-based; conditions: read-out: Ratio CC50/IC50
Leishmania infantum = assay: Antileishmanial activity against Leishmania infantum MHOM/BR/1972/LD amastigotes infected in mouse Peritoneal macrophage cells assessed as inhibition of parasite growth incubated for 96 hrs by light microscopic analysis; assay type: functional, organism-based
[2] = Leishmania infantum, MHOM/BR/1972/LD, Peritoneal macrophage, 96 h, read-out: IC50

Row | SMILES | selectivity ratio [1] | IC50 (Leishmania infantum; [2]) [µM] | other results
1 | C=CCc1ccc(Oc2cc(CC=C)cc(OC)c2OCCN2CCOCC2)c(OC)c1 | 6.6 | – | –
2 | COc1ccc(COc2c(OC)cc(CN3CCOCC3)cc2Oc2ccc(CN3CCOCC3)cc2OC)cc1 | 2.7 | – | –
3 | CCCc1ccc(OCc2ccc(OC)cc2)c(Oc2ccc(CN3CCOCC3)cc2OC)c1 | – | – | IC50 (Leishmania infantum; peritoneal macrophage): Not Active
4 | C=CCc1cc(OC)c(O)c(Oc2ccc(CN3CCOCC3)cc2OC)c1 | – | > 50 | –
5 | CCCc1ccc(Oc2cc(CCC)cc(OC)c2OCc2ccc(OC)cc2)c(OC)c1 | – | > 50 | –
6 | C=CCc1ccc(Oc2cc(CC=C)cc(OC)c2OCC(=O)N2CCOCC2)c(OC)c1 | – | > 50 | –
7 | C=CCc1ccc(Oc2cc(CCC)cc(OC)c2OCc2ccc(OC)cc2)c(OC)c1 | – | > 50 | –
8 | C=CCc1cc(OC)c(OC)c(Oc2ccccc2OC)c1 | – | > 50 | –
9 | CCCc1cc(OC)c(OCc2ccc(OC)cc2)c(Oc2ccc(CN3CCOCC3)cc2OC)c1 | 9.7 | – | –
10 | C=CCc1cc(OC)cc(Oc2ccc(CC=C)cc2OC)c1 | – | > 50 | –
11 | C=CCc1ccc(Oc2cccc(OC)c2O)c(OC)c1 | – | > 50 | –
12 | C=CCc1ccc(Oc2cccc(OC)c2OC(C)=O)c(OC)c1 | – | > 50 | –
13 | CCCc1cc(OC)c(OCc2ccc(OC)cc2)c(Oc2ccc(CN3CCCCC3)cc2OC)c1 | 3.9 | – | –
14 | CCCc1ccc(Oc2cc(CN3CCOCC3)cc(OC)c2OCc2cc(OC)c(OC)c(OC)c2)c(OC)c1 | > 7.6 | – | –
15 | C=CCc1cc(OC)c(OCc2ccc(OC)cc2)c(Oc2ccc(CN3CCCC3)cc2OC)c1 | – | > 50 | –
16 | C=CCc1ccc(Oc2cc(CC=C)cc(OC)c2O)cc1 | – | – | IC50 (Leishmania infantum; peritoneal macrophage): Not Active
17 | C=CCc1ccc(Oc2cccc(OC)c2OC)c(OC)c1 | – | > 50 | –
18 | C=CCc1cc(OC)c(O)c(Oc2ccc(CCC)cc2OC)c1 | – | > 50 | –
19 | C=CCc1ccc(Oc2cc(CC=C)cc(OC)c2OCc2ccc(OC)cc2)c(OC)c1 | – | > 50 | –
20 | C=CCc1ccc(Oc2cc(CC=C)ccc2OCc2ccc(OC)cc2)c(OC)c1 | – | – | IC50 (Leishmania infantum; peritoneal macrophage): Not Active

Row | SMILES | selectivity ratio [1] | IC50 (Leishmania infantum; [2]) [µM] | other results
21 | C=CCc1cc(OC)c(OCc2ccc(OC)cc2)c(Oc2ccc(CCC)cc2OC)c1 | – | > 50 | –
22 | CCCc1ccc(Oc2cc(CN3CCCCC3)cc(OC)c2OCc2ccc(OC)cc2)cc1 | 7.6 | – | –
23 | C=CCc1cc(OC)c(OCc2ccc(OC)cc2)c(Oc2ccccc2OC)c1 | > 8.3 | – | –
24 | C=CCc1cc(OC)c(O)c(Oc2ccc(CN3CCCC3)cc2OC)c1 | – | > 50 | –
25 | C=CCc1cc(OC)c(OC(C)=O)c(Oc2ccccc2OC)c1 | > 6.1 | – | –
26 | CCCc1ccc(Oc2cc(CN3CCOCC3)cc(OC)c2OCc2ccc(OC)cc2)cc1 | > 13.1 | – | –
27 | C=CCc1ccc(Oc2cc(CC=C)cc(OC)c2OCC(=O)N2CCCC2)c(OC)c1 | 2.6 | – | –
28 | C=CCc1cc(OC)c(O)c(Oc2ccccc2OC)c1 | – | > 50 | –
29 | C=CCc1ccc(Oc2cc(CC=C)cc(OC)c2OCOC)c(OC)c1 | – | > 50 | –
30 | C=CCc1ccc(Oc2cccc(OC)c2OCc2ccc(OC)cc2)c(OC)c1 | – | – | IC50 (Leishmania infantum; peritoneal macrophage): Not Active
31 | C=CCc1cc(OC)c(OCc2ccc(OC)cc2)c(Oc2ccc(CN3CCOCC3)cc2OC)c1 | > 20.6 | – | –
32 | C=CCc1cc(OC)c(OC)c(Oc2ccc(CCC)cc2OC)c1 | – | > 50 | –
33 | CCCc1ccc(Oc2cc(CN3CCOCC3)cc(OC)c2OCc2ccc(C(F)(F)F)cc2)c(OC)c1 | > 15.1 | – | –
34 | C=CCc1ccc(Oc2cc(CCC)cc(OC)c2O)c(OC)c1 | – | > 50 | –
35 | CCCc1ccc(Oc2cc(CN3CCOCC3)cc(OC)c2OCc2ccc(OC)cc2)c(OC)c1 | > 12.2 | – | –
36 | C=CCc1ccc(Oc2cc(CC=C)cc(OC)c2OCCN2CCCC2)c(OC)c1 | 6 | – | –
37 | C=CCc1ccc(Oc2cc(CC=C)cc(OC)c2OCc2ccc(OC)cc2)cc1 | – | – | IC50 (Leishmania infantum; peritoneal macrophage): Not Active
38 | C=CCc1ccc(O)c(Oc2ccc(CC=C)cc2OC)c1 | – | – | IC50 (Leishmania infantum; peritoneal macrophage): Not Active
39 | CCCCCCCCCCCCCCCCOP(=O)([O-])OCC[N+](C)(C)C [MILTEFOSINE] | 18.4 | – | –
